These results are taken from publication PMC2709242 (Molecular cell, 2009).

Test [1] has as its system K63-linked diUb (K63-Ub2). The experiment in a line: Fluorescence anisotropy binding to K63-linked diUb. A general note: Fluorescence polarisation rises when a labelled molecule tumbles more slowly, as on binding a larger partner.
A further test relates to K63-Ub4. The experiment in a line: Fluorescence anisotropy binding to K63-linked tetraUb. To be noted: ratio of Kd values, solution-state measurements.

As for “REVNSQEREVNSQE: Rap80 tUIM peptide with linker between UIMs extended to 14 residues”, the “linkage selectivity for diUb (K63-Ub2 vs K48-Ub2), in words” value in test [1] is listed as “very little selectivity”. The “K63-Ub2 binding affinity, in words” value in test [1] (compared with other tUIM peptides) was “substantially more weakly”.

B1: Rap80 (residues 1 - 233): soluble fragment of Rap80 longer than the minimal tUIMs (protein, UniProt Q96RL1 1-233, looked up, fragment)
chain: MPRRKKKVKEVSESRNLEKKDVETTSSVSVKRKRRLEDAFIVISDSDGEEPKEENGLQKTKTKQSNRAKCLAKRKIAQMTEEEQFALALKMSEQEAREVNSQEEEEEELLRKAIAESLNSCRPSDASATRSRPLATGPSSQSHQEKTTDSGLTEGIWQLVPPSLFKGSHISQGNEAEEREEPWDHTEKTEEEPVSGSSGSWDQSSQPVFENVNVKSFDRCTGHSAEHTQCGKP
For B1, the “preference for K63-Ub4 over K48-Ub4” value with K63-Ub4 is given as 7 fold.
